From patent US20100022551A1, “TRIMETAZIDINE FOR USE IN THE TREATMENT OF FIBROMYALGIA SYNDROME AND RELATED CONDITIONS” (Mintals Limited Consulco, Consulco House, priority 2006, published 2010)
Values joined by “and” are separate entries in the source; they are usually repeats but may differ in a detail not shown here. Equal entries are not always repeated. “Also recorded” adds a separate entry of the source.

How the values were obtained:
[1] = system: Human Subject Diagnosed with Fibromyalgia; test: Patient history of prior treatment of the fibromyalgia subjects; settings: for pain relief, prescription analgesics / side effects, prescription analgesics: Examples 1-3, codeine at high dose; for pain relief, OTC analgesics: Examples 1-3, codeine at low dose
Excerpt: (§1) Patient History of Prior Treatment: A patient history was taken. Prior treatments targeting pain relief were as follows.
Prior treatments targeting other symptoms included the following. The subject had taken tegaserod for irritable bowel syndrome. Additional prior therapies included sertraline for depression, and zolpidem for insomnia. The subject has also taken proclorperazine for dizziness.
Prior treatments targeting other symptoms included the following. The subject had taken tegaserod for irritable bowel syndrome. Additional prior therapies included sertraline for depression, and zolpidem for insomnia.
as §1
Prior treatments targeting other symptoms included the following. The subject had taken tegaserod for irritable bowel syndrome. Additional prior therapies included zolpidem, midazolam, zopiclone, and chlorpheniramine for insomnia.

[2] = system: long-chain fatty acid oxidation; settings: Kantor et al., Circ. Res. 2000; cited from earlier work
[3] = system: Human Subject Diagnosed with Fibromyalgia; test: Treatment of human subjects diagnosed with fibromyalgia with trimetazidine (Vastarel MR 35 mg orally, twice daily); format: in vivo; settings: for reduction in the widespread pain: subject-reported
Method: (§2) A person presented with long-standing complaints (15 years) of widespread pain—headaches, upper and lower back pain, neck pain, elbow and knee pain bilaterally, calf pain bilaterally and jaw pain. General non-specific symptoms were fatigue, symptoms of irritable bowel syndrome (constipation-type), insomnia, cognitive and memory impairment, morning stiffness, dizziness, irritability and depression.
Treatment Regime: The subject was administered trimetazidine (modified release formulation, Vastarel® MR), 35 mg orally, twice daily, originally for treatment of their cardiac condition.
as §2, with “(10” for “(15”, “hip” for “elbow and knee”, “knee” for “calf”, “stiffness,” for “stiffness, dizziness, irritability”
Treatment Regime: The subject was administered trimetazidine (modified release formulation, Vastarel® MR), 35 mg orally, twice daily.
A person presented with a 5 year history of complaints of widespread pain headaches, upper and lower back pain, neck pain, hip pain bilaterally and knee pain bilaterally. General non-specific symptoms were fatigue, symptoms of irritable bowel syndrome (constipation-type), insomnia, morning stiffness and emotional liability.
The following is a synopsis of the clinical response of each of eight (8) patients diagnosed with FMS, each of whom received treatment with trimetazidine MR (Vastarel® MR), 35 mg orally, twice daily, for a period of at least four (4) weeks

[4] = molecular target: long chain 3-ketoacyl CoA thiolase (Rattus norvegicus, UniProt Q60587); settings: Kantor et al., Circ. Res. 2000; cited from earlier work
[5] = system: pyruvate dehydrogenase; settings: Kantor et al., Circ. Res. 2000; cited from earlier work
[6] = system: glucose oxidation; settings: Kantor et al., Circ. Res. 2000; cited from earlier work
[7] = Example 1, after six (6) months of continuous use
[8] = Example 4, individual FMS patients, Short Term i.e. within 72 hours
[9] = Example 4, individual patients, Medium Term i.e. over four (4) weeks
[10] = Example 4, individual patients, within 72 hours
[11] = Example 4, person five, within 72 hours
[12] = Example 4, person four, within 72 hours
[13] = Example 4, person one, within 72 hours
[14] = Examples 2 and 3, after four (4) months of continuous use
[15] = Examples 2 and 3, within 24 hours

Sequence of long chain 3-ketoacyl CoA thiolase (Q60587 35-475): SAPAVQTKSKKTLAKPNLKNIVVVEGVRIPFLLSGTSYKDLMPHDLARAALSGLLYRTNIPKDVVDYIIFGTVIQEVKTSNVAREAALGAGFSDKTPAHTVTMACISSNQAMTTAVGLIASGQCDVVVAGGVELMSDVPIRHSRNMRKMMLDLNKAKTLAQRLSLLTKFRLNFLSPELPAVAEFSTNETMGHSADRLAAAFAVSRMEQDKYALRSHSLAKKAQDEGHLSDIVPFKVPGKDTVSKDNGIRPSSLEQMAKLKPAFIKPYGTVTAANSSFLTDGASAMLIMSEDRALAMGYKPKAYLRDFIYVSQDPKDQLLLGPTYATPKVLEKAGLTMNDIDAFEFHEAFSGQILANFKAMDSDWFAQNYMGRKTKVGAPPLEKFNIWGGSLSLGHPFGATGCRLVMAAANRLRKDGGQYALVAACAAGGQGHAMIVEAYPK
Sequence of long chain 3-ketoacyl CoA thiolase (Q64428 37-763 partner): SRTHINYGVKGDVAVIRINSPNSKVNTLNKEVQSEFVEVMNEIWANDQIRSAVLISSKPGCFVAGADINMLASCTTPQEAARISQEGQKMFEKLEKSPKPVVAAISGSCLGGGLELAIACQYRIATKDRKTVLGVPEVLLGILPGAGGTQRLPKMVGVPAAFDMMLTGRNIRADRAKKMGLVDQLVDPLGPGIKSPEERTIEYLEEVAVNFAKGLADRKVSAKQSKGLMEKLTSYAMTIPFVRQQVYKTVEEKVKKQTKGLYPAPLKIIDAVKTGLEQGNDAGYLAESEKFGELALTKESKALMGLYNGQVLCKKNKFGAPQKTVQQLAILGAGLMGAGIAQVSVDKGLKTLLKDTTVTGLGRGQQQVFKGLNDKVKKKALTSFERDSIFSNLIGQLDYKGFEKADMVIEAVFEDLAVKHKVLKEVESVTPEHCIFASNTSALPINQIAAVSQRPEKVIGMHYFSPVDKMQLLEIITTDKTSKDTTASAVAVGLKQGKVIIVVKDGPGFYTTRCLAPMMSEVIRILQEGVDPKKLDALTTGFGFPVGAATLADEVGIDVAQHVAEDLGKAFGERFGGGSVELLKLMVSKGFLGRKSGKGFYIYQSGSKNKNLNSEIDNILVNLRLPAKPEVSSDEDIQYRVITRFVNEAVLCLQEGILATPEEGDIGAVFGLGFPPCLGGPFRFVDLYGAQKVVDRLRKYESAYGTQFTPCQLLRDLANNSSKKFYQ

SMILES: COc1ccc2c3c1O[C@H]1[C@@H](O)C=C[C@H]4[C@@H](C2)N(C)CC[C@@]341 [codeine]
- pain relief, prescription analgesics [1]: mild to moderate and very temporary relief
- side effects, prescription analgesics [1]: frequently accompanied by unpleasant side effects
- pain relief, OTC analgesics [1]: no pain relief whatsoever; also recorded: negligible pain relief

SMILES: CCN(CC)CC(=O)Nc1c(C)cccc1C [lidocaine]
- localized pain relief, trigger point injections ([1]; Examples 1 and 2): the best localized pain relief

SMILES: CCOC(=O)C1(c2ccccc2)CCN(C)CC1 [meperidine]
- pain relief, prescription analgesics [1]: mild to moderate and very temporary relief
- side effects, prescription analgesics [1]: frequently accompanied by unpleasant side effects

SMILES: CC(=O)Nc1ccc(O)cc1 [paracetamol]
- pain relief, OTC analgesics [1]: no pain relief whatsoever; also recorded: negligible pain relief

SMILES: COc1cccc(C2(O)CCCCC2CN(C)C)c1 (centres unmarked) [tramadol]
- pain relief, prescription analgesics [1]: mild to moderate and very temporary relief
- side effects, prescription analgesics [1]: frequently accompanied by unpleasant side effects

SMILES: COc1ccc(CN2CCNCC2)c(OC)c1OC [trimetazidine, 1-(2,3,4-trimethyloxybenzyl)piperazine]
- long-chain fatty acid oxidation [2]: inhibits
- time at which benefits were first noticed after commencing therapy ([3]; Example 1, person, 35 mg orally twice daily): ≤ 24 h
- improvement in all symptoms and signs of fibromyalgia ([3]; Example 1, person, 35 mg orally twice daily, within 72 hours of starting treatment): vast improvement
- reduction in the widespread pain ([3]; Example 1, person, within 72 hours): 90%
- episodes of pain at trigger points at follow-up [3, 7]: infrequent
- quality of life at follow-up [3, 7]: same marked improvement
- clarity of thoughts ([3]; Example 1, within 72 hours): markedly increased
- energy levels ([3]; Example 1, within 72 hours): very significantly increased
- level of irritability ([3]; Example 1, within 72 hours): markedly reduced
- mood ([3]; Example 1, within 72 hours): very improved
- regularity of bowel habits ([3]; Example 1, within 72 hours): markedly improved
- residual pain ([3]; Example 1, within 72 hours): minimal residual pain reported at the left medial knee
- short and long term memory ([3]; Example 1, within 72 hours): improvement
- sleep patterns ([3]; Example 1, within 72 hours): very significantly improved
- clarity of thoughts ([3]; Example 2, within 24 hours): markedly increased
- short and long term memory ([3]; Example 2, within 24 hours): improvement
- reduction in widespread pain [3, 8]: 90% reduction in
- reduction in widespread pain and trigger point pain [3, 8]: 90% reduction in
- affect (EXAMINATION FINDINGS; patient: affect and energy levels) ([3]; Example 4, individual patients): markedly improved
- resolution of trigger point tenderness (EXAMINATION FINDINGS) ([3]; Example 4, individual patients): Sustained
- Residual symptoms [3, 9]: include mild acid; also recorded: infrequent headaches; also recorded: insomnia; also recorded: episodes of joint
- sense of well-being [3, 9]: increased sense of
- specific complaints [3, 9]: symptoms with no
- Energetic feeling [3, 10]: Energetic feeling
- Nausea (patient: Nausea and Vomiting) [3, 10]: Absence of Nausea
- alertness and clarity of thinking [3, 10]: Increased alertness
- dizziness/dizzy spells [3, 10]: Infrequent dizzy; also recorded: Absence of
- improved mood and concentration [3, 10]: Significantly
- improved mood and memory [3, 10]: Significantly
- reduction in feeling of generalized tightness and stiffness of muscles [3, 10]: 90% reduction in (2×) and 90% reduction of
- sleep [3, 10]: Consistent restful
- improved energy levels (EXAMINATION FINDINGS) ([3]; Example 4, person five): Markedly
- reduction in irritability [3, 11]: 90% reduction in
- reduction in symptoms of Irritable Bowel Syndrome [3, 11]: 90% reduction in
- Memory [3, 12]: Improved Memory
- Nervousness [3, 12]: No Nervousness
- improvement in physical appearance (EXAMINATION FINDINGS) ([3]; Example 4, person one): obvious marked
- increase in energy levels ([3]; Example 4, person one, after four (4) weeks of daily use): particular a sustained
- Chest Pain [3, 13]: Absence of Chest
- symptoms of Irritable Bowel Syndrome [3, 13]: Markedly reduced
- sustained improvement of symptoms ([3]; Example 4, person three, after four (4) months of daily use): 95% sustained
- reduction in IBS and Acid Reflux Symptoms ([3]; Example 4, person three, within 72 hours): 90% reduction in
- sustained improvement of symptoms ([3]; Example 4, person two, after seven (7) weeks of daily use): dramatic 95%
- reduction in severity of Pre-Menstrual Cramps ([3]; Example 4, person two, within 72 hours): 70% reduction in
- sustained improvement of all symptoms ([3]; Example 4, person, after five (5) weeks of daily use): 95% sustained
- sustained improvement of symptoms ([3]; Example 4, person, after six (6) weeks of daily use): (95%) sustained
- sustained improvement of symptoms ([3]; Example 4, after four (4) weeks of daily use): 95% sustained and 90% sustained
- improvement in all symptoms and signs of fibromyalgia ([3]; Examples 2 and 3, single female patients, 35 mg orally twice daily, within 24 hours of starting treatment): vast improvement
- reduction in the widespread pain ([3]; Examples 2 and 3, single female patients, within 24 hours): 95%
- quality of life at follow-up [3, 14]: same marked improvement
- relapse of symptoms [3, 14]: no relapse
- energy levels [3, 15]: very significantly increased
- mood [3, 15]: very improved
- regularity of bowel habits [3, 15]: markedly improved
- residual pain [3, 15]: minimal residual pain reported at the left hip; also recorded: residual mild headache
- sleep patterns [3, 15]: very significantly improved
- reduction in widespread pain ([3]; FMS patients, course of treatment of at least four weeks): remarkable and measurable reduction
- sustained or improved relief of widespread pain at follow-up ([3]; all patients, follow-up at either four months or four weeks of treatment): 90-95%
- improvement of minor symptoms ([3]; all patients, within 72 hours): significant improvement
- improvement in widespread pain ([3]; eleven human subjects, each): remarkable improvement
- reduction in widespread pain, and where applicable, tender point pain ([3]; eleven human subjects, each, within 72 hours of commencement of treatment): marked reduction
- reduction in widespread pain, on average ([3]; eleven human subjects, within 72 hours of commencing treatment): 90%
- activity of long chain 3-ketoacyl CoA thiolase [4]: decreased activity
- levels of pyruvate dehydrogenase [5]: increased levels
- glucose oxidation [6]: stimulates
